In patent publication US10568819B2, “Skin enhancing compositions and methods” (Sytheon Limited, priority 2016, dated 2020):
Read-outs that look alike come from different tables or passages of the source.

Key:
[1] = system: ITGA4; assay: DNA microarray gene expression, ITGA4; assay type: cell-based
Source text: (§1) In light of the efficacy of the aryl alkanones ire addressing many of the molecular/biomolecular processes damaged by UV exposure, a study was undertaken to assess whether these compounds would also be effective in addressing symptoms associated with non-UV induced skin aging including chronological aging as well as disease conditions that likewise adversely affect skin processes. The studies conducted involves DNA microarray, PCR array, cell culture, enzyme inhibitory activity.

[2] = system: ITGB5; assay: PCR array gene expression, ITGB5; assay type: cell-based
Source text: as §1

[3] = system: NOX; details: UVA, Fibroblasts
[4] = system: TIMP3; assay: PCR array gene expression, TIMP3; assay type: cell-based
Source text: as §1

[5] = system: POT1; assay: DNA microarray gene expression, POT1; assay type: cell-based
Source text: as §1

[6] = system: LAMA4; assay: DNA microarray gene expression, LAMA4; assay type: cell-based
Source text: as §1

[7] = system: Fibroblasts; assay: UVA- and UVB-induced formation of immediate CPDs (iCPDs) in fibroblasts; assay type: cell-based; details: UVA, 25 μg/ml
Description: Given the significance of CPDs in skin aging and damage, a study was undertaken to determine whether compounds of the present invention have the ability to directly protect the genome of skin cells from the mutagenic effect of UV light as evidenced by CPDs inhibition. The study was conducted in accordance with the method described by Mitchell et. al. [Mitchell, D L, The relative cytotoxicity of (6-4) photoproducts and cyclobutane dimers in mammalian cells. Photochem Photobiol, 48(1):51-57, 1988)] pursuant to which UVA- and UVB-induced formation of immediate CPDs (iCPDs) were determined.

[8] = system: COL5A1; assay: DNA microarray gene expression, COL5A1; assay type: cell-based
Source text: as §1

[9] = system: COL14A1; assay: DNA microarray gene expression, COL14A1; assay type: cell-based
Source text: as §1

[10] = system: ITGA1; assay: PCR array gene expression, ITGA1; assay type: cell-based
Source text: as §1

[11] = system: TIMP4; assay: DNA microarray gene expression, TIMP4; assay type: cell-based
Source text: as §1

[12] = target: MMP-12 (Homo sapiens, UniProt P39900); assay: MMP-12 (Elastase) inhibition; assay type: biochemical; details: read-out: Inhibitory concentration (IC50), MMP-12
Description: The methodology for the study of MMP-12 activity was as follows: • A 0.1 g sample of Compound 1 was dissolved in 1 ml DMSO, then it was diluted 100× with 1.4% randomly methylated cyclodextrin in Iris buffer (50 mM Tris pH 7.5, 150 mM NaCl, 2 mM CaCl2, 5μ ZnSO4, 0.01% Brij-35) to make a stock solution. For the analysis, different concentrations of Compound 1 were used to determine the IC50. In the well: 0.2 mM substrate, 0.25 μg/ml enzyme, and sample were mixed and read according to the reference (TSA Thring et al. BMC Complementary and Alternate Medicine, 9, 27, 2009; https://doi.org/10.1186/1472-6882-9-27)

MMP-12, sequence (P39900 106-470): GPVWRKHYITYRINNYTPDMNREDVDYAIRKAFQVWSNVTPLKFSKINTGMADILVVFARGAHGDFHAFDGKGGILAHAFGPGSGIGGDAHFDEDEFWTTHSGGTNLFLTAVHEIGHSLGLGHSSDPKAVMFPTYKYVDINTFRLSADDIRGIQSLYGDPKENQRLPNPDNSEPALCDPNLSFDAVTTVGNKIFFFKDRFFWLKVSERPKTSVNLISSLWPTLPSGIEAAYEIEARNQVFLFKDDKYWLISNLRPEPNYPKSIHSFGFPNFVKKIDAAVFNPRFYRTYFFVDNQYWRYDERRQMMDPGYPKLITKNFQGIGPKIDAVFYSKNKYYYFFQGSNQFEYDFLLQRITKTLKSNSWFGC

COc1cc(CC(C(C)=O)C(C)=O)ccc1O [Compound 1, Acetyl Zingerone]
Microarray, ITGA4 gene expression [1]: +1.6
PCR array, ITGB5 gene expression [2]: +1.7
reduction of NOX activity ([3]; 25 μg/ml): −27%
reduction of NOX activity ([3]; 50 μg/ml): −33%
PCR array, TIMP3 gene expression [4]: +2.4
Microarray, POT1 gene expression [5]: +2.9
Microarray, LAMA4 gene expression [6]: +1.7
UVA/% Reduction in iCPDs vs. Control [7]: 45%
Microarray, COL5A1 gene expression [8]: +4.1
Microarray, COL14A1 gene expression [9]: +4.3
PCR array, ITGA1 gene expression [10]: +2.2
Microarray, TIMP4 gene expression [11]: +1.6
IC50 [12]: 1.06 mM
